According to US7906522B2, “2-aminoquinazoline derivatives” (Kyowa Hakko Kirin Co., Ltd, priority 2005, dated 2011):

Assays:
[1] = target: T1, Activated human p38α (Homo sapiens, UniProt Q16539); test: p38MAP kinase inhibition test; format: biochemical; details: at a concentration of 1 μmol/L; substrate myelin basic protein, ATP 20 μmol/L, [γ-32P]ATP; read-out: enzyme inhibitory activity
T1 construct: purchased Upstate Biotechnology Inc. 14-251
Summary of the method: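 Radiometric kinase assay with myelin basic protein (20 μg/assay) as substrate, 20 μmol/L ATP plus [γ-32P]ATP, MOPS pH 7.2 with MgCl2 18.75 mmol/L. Reaction run 15 min at 30° C., stopped with phosphoric acid; 32P-MBP captured on phosphocellulose and counted by scintillation.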

T1 sequence (Q16539 whole entry): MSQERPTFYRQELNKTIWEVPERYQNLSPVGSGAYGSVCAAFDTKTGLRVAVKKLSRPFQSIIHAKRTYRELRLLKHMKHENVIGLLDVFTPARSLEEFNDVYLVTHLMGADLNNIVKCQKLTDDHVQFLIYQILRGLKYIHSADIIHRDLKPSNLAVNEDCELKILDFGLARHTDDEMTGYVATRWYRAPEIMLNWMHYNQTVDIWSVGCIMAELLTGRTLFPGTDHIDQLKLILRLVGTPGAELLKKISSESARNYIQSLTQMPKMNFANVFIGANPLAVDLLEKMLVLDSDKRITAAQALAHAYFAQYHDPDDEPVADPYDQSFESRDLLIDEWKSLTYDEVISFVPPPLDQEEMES

Compound | melting point | inhibition at 1 µM [1]
CONC(=O)c1ccc(C)c(-c2cc3cnc(NC(C)C)nc3cc2O)c1 [Compound 353, 7-Hydroxy-2-isopropylamino-6-(5-methoxycarbamoyl-2-methylphenyl)quinazoline] | 158 to 161 °C | ≥ 50%
CC(C)Nc1ncc2cc(-c3cccc(NC(=O)c4ccnc(-c5ccc(F)cc5)c4)c3)c(O)cc2n1 [Compound 355, 6-{3-[2-(4-Fluorophenyl)pyridin-4-ylcarbonylamino]phenyl}-7-hydroxy-2-(isopropylamino)quinazoline] | 243 to 245 °C | ≥ 50%
Cc1ccc(-n2nc(C)cc2NC(=O)c2ccc(C)c(-c3cc4cnc(NC(C)C)nc4cc3O)c2)cc1 [Compound 357, 7-Hydroxy-2-isopropylamino-6-{2-methyl-5-[5-methyl-2-(4-methylphenyl)-2H-pyrazol-3-ylcarbamoyl]phenyl}quinazoline] | 173 to 175 °C | ≥ 50%
CC[C@H](C)Nc1ncc2cc(-c3cc(C(=O)NC4CC4)ccc3C)c(O)cc2n1 [Compound 361, (S)-2-(sec-Butylamino)-6-(5-cyclopropylcarbamoyl-2-methylphenyl)-7-hydroxyquinazoline] | 153 °C | ≥ 50%
CC[C@H](C)Nc1ncc2cc(-c3cccc(NC(=O)c4ccnc(N5CCOCC5)c4)c3)c(O)cc2n1 [Compound 363, (S)-2-(sec-butylamino)-7-hydroxy-6-{3-[(2-morpholinopyridin-4-yl)carbonylamino]phenyl}quinazoline] | 183 to 184 °C | ≥ 50%
CCC(CC)Nc1ncc2cc(-c3cc(C(=O)NC4CC4)ccc3C)c(O)cc2n1 [Compound 365, 6-(5-Cyclopropylcarbamoyl-2-methylphenyl)-2-(3-pentylamino)-7-hydroxyquinazoline] | 210 °C | ≥ 50%
CCC(CC)Nc1ncc2cc(-c3cccc(NC(=O)c4cccc(N(C)C)c4)c3)c(O)cc2n1 [Compound 366, 6-{3-[(3-Dimethylaminophenyl)carbonylamino]phenyl}-2-(3-pentylamino)-7-hydroxyquinazoline] | 152 °C | ≥ 50%
CCC(CC)Nc1ncc2cc(-c3cccc(NC(=O)c4ccnc(N5CCOCC5)c4)c3)c(O)cc2n1 [Compound 368, 2-(3-Pentylamino)-7-hydroxy-6-{3-[(2-morpholinopyridin-4-yl)carbonylamino]phenyl}quinazoline] | 154 to 155 °C | ≥ 50%
